Assay results: patent US8415357B2 (Canbas Co., Ltd., priority 2007, dated 2013)
Entries after “also recorded” stand apart in the source; their conditions may differ.

What was measured:
ARH-77 cells = assay: Survival of SCID mice with xenografts of ARH-77 cells; details: for cytotoxicity against normal cells (the mouse graft host): administered intraperitoneally or orally to SCID mice with ARH-77 xenografts
Procedure: For the experiment shown in FIG. 6, mice received 1.9×10^6 ARH-77 cells by intraperitoneal transplantation. […] Mice treated with dexamethasone (“Dexa”) received an intraperitoneal injection of 2 mg/kg dexamethasone. Vehicle treated control animals received intraperitoneal vehicle injection. Each injection was performed on day 1, day 2 and day 3 after transplantation of ARH-77 cells.
For the experiment shown in FIG. 7, mice received 0.8×10^6 ARH-77 cells by intraperitoneal transplantation.
For the experiment shown in FIG. 8, mice received 4.1×10^6 ARH-77 cells by intraperitoneal transplantation.

Jurkat cells = assay: Adaptation to G2 cell cycle arrest (G1 increment) in X-ray pre-arrested Jurkat cells, flow cytometry; type: cell-based, human; details: for IC50: Homo sapiens, Jurkat, 24 h, concentration causing half-maximal increase of % cells in G1 phase (G1 increment), Jurkat pre-arrested by 10 Gy X-ray, 24 hours with compound
How it was run: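 Jurkat cells were G2-arrested by 10 Gy X-ray irradiation and held 24 h in 10% FCS/RPMI1640 at 37 °C. They were then exposed to compounds for a further 24 h. Propidium iodide staining and flow cytometry gave the %G1 cells, and IC50 (μM) is the concentration giving a half-maximal G1 increment.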

Row | SMILES | IC50 (Jurkat cells; Table 3) | further results
1 | CC1=C(CCC(=O)OC(C)(C)C)C(=O)N(Nc2ccc(C(F)(F)F)c(Cl)n2)C1=O [Compound S01860, tert-butyl 3-(1-{[6-chloro-5-(trifluoromethyl)(2-pyridyl)]amino}-4-methyl-2,5-dioxoazolin-3-yl) propanoate] |  | first decrease in survival, days after transplantation (ARH-77 cells; 0.8×10^6 ARH-77 cells i.p., single oral administration 750 mg/kg on Day 1): 70 days; survival at 85 days (ARH-77 cells; 0.8×10^6 ARH-77 cells i.p., single oral administration 750 mg/kg on Day 1, control about 20%): ~90%; cytotoxicity against normal cells (the mouse graft host) (ARH-77 cells): no detectable cytotoxicity against normal cells; IC50 (Jurkat cells; Table 2): 30 nM; percentage of cells in G1 phase (Jurkat cells; Jurkat cells pre-arrested at G2 by X-ray 10 Gy, 0.019 μM to 0.625 μM, 24 hours): dose-dependent increase in the percentage of cells in G1 phase; also recorded: significant increase in the number of G1 cells
2 | CC1=C(C)C(=O)N(Nc2nc(Cl)c(C(F)(F)F)cc2Br)C1=O [Compound S01981, 1-{[3-bromo-6-chloro-5-(trifluoromethyl)(2-pyridyl)]amino}-3,4-dimethylazoline-2,5-dione] |  | IC50 (Jurkat cells; Table 2): 78 nM
3 | CC1=C(CC(=O)OC(C)(C)C)C(=O)N(Nc2ccc(C(F)(F)F)c(Cl)n2)C1=O [Compound S02225, tert-butyl 2-(1-{[6-chloro-5-(trifluoromethyl) (2-pyridyl)]amino}-4-methyl-2,5-dioxoazolin-3-yl)acetate] | 30 nM | 
4 | CCC(C)OC(=O)CCC1=C(C)C(=O)N(Nc2ccc(C(F)(F)F)c(Cl)n2)C1=O (stereo not shown) [Compound S02264, Methylpropyl 3-(1-{[6-chloro-5-(trifluoromethyl) (2-pyridyl)]amino}-4-methyl-2,5-dioxoazolin-3-yl) propanoate] | 40 nM | 
5 | CCOCC1=C(C)C(=O)N(Nc2ccc(C(F)(F)F)c(Cl)n2)C1=O [Compound S02366, 1-{[6-chloro-5-(trifluoromethyl) (2-pyridyl)]amino}-3-(ethoxymethyl)-4-methylazoline-2,5-dione] | 40 nM | 
6 | CC1=C(COCCC(C)C)C(=O)N(Nc2ccc(C(F)(F)F)c(Cl)n2)C1=O [Compound S03405, 1-{[6-chloro-5-(trifluoromethyl)(2-pyridyl)]amino}-4-methyl-3-[(3-methylbutoxy)methyl]azoline-2,5-dione] | < 19 nM | cytotoxicity against normal cells (the mouse graft host) (ARH-77 cells): no detectable cytotoxicity against normal cells
7 | CCCCC1=C(C)C(=O)N(Nc2ccc(C(F)(F)F)c(Cl)n2)C1=O [Compound S03448, 3-butyl-1-{[6-chloro-5-(trifluoromethyl) (2-pyridyl)]amino}-4-methylazoline-2,5-dione] | 156 nM | 
8 | CC1=C(CCC2(C)OCCO2)C(=O)N(Nc2ccc(C(F)(F)F)c(Cl)n2)C1=O [Compound S03456, 1-{[6-chloro-5-(trifluoromethyl) (2-pyridyl)]amino}-4-methyl-3-[2-(2-methyl (1,3-dioxolan-2-yl))ethyl]azoline-2,5-dione] | 156 nM | 
9 | CCCCOCC1=C(C)C(=O)N(Nc2ccc(C(F)(F)F)c(Cl)n2)C1=O [Compound S03518, 3-(butoxymethyl)-1-{[6-chloro-5-(trifluoromethyl)(2-pyridyl)]amino}-4-methylazoline-2,5-dione] | 20 nM | cytotoxicity against normal cells (the mouse graft host) (ARH-77 cells): no detectable cytotoxicity against normal cells
10 | CCCC(O)CCC1=C(C)C(=O)N(Nc2ccc(C(F)(F)F)c(Cl)n2)C1=O (stereo not shown) [Compound S03552, 1-{[6-chloro-5-(trifluoromethyl)(2-pyridyl)]amino}-4-(3-hydroxyhexyl)-3-methylazoline-2,5-dione] | 60 nM | 
11 | COCCOCC1=C(C)C(=O)N(Nc2ccc(C(F)(F)F)c(Cl)n2)C1=O [Compound S03742, 1-{[6-chloro-5-(trifluoromethyl)(2-pyridyl)]amino}-3-[(2-methoxyethoxy)methyl]-4-methylazoline-2,5-dione] | 120 nM | 
12 | CCC(O)CCC1=C(C)C(=O)N(Nc2ccc(C(F)(F)F)c(Cl)n2)C1=O (stereo not shown) [Compound S03745, 1-{[6-chloro-5-(trifluoromethyl)(2-pyridyl)]amino}-4-(3-hydroxypentyl)-3-methylazoline-2,5-dione] | 60 nM | 
13 | CC1=C(COCCC(C)(C)C)C(=O)N(Nc2ccc(C(F)(F)F)c(Cl)n2)C1=O [Compound S03747, 3-[(3,3-dimethylbutoxy)methyl]-1-{[6-chloro-5-(trifluoromethyl) (2-pyridyl)]amino}-4-methylazoline-2,5-dione] | < 19 nM | cytotoxicity against normal cells (the mouse graft host) (ARH-77 cells): no detectable cytotoxicity against normal cells
14 | CC1=C(COC(C)(C)C)C(=O)N(Nc2ccc(C(F)(F)F)c(Cl)n2)C1=O [Compound S03873, 4-[(tert-butoxy)methyl]-1-{[6-chloro-5-(trifluoromethyl)(2-pyridyl)]amino}-3-methylazoline-2,5-dione] | 20 nM | 
15 | CC1=C(CCOCC(C)C)C(=O)N(Nc2ccc(C(F)(F)F)c(Cl)n2)C1=O [Compound S03955, 1-{[6-chloro-5-(trifluoromethyl)(2-pyridyl)]amino}-4-methyl-3-[2-(2-methylpropoxy)ethyl]azoline-2,5-dione] | 60 nM | 
16 | CC1=C(CCOCCC(C)C)C(=O)N(Nc2ccc(C(F)(F)F)c(Cl)n2)C1=O [Compound S03956, 1-{[6-chloro-5-(trifluoromethyl)(2-pyridyl)]amino}-4-methyl-3-[2-(3-methylbutoxy)ethyl]azoline-2,5-dione] | 156 nM | 
17 | CCOCCC1=C(C)C(=O)N(Nc2ccc(C(F)(F)F)c(Cl)n2)C1=O [Compound S03960, 1-{[6-chloro-5-(trifluoromethyl)(2-pyridyl)]amino}-3-(2-ethoxyethyl)-4-methylazoline-2,5-dione] | 40 nM | 
18 | CC1=C(COCC(C)(C)C)C(=O)N(Nc2ccc(C(F)(F)F)c(Cl)n2)C1=O [Compound S03962, 3-[(2,2-dimethylpropoxy)methyl]-1-{[6-chloro-5-(trifluoromethyl) (2-pyridyl)]amino}-4-methylazoline-2,5-dione] | < 19 nM | 
19 | CC1=C(COCC(C)C)C(=O)N(Nc2ccc(C(F)(F)F)c(Cl)n2)C1=O [Compound S03963, 1-{[6-chloro-5-(trifluoromethyl)(2-pyridyl)]amino}-4-methyl-3-[(2-methylpropoxy)methyl]azoline-2,5-dione] | < 19 nM | 
20 | CC1=C(COC(C)CC(C)C)C(=O)N(Nc2ccc(C(F)(F)F)c(Cl)n2)C1=O (stereo not shown) [Compound S03964, 4-[(1,3-dimethylbutoxy)methyl]-1-{[6-chloro-5-(trifluoromethyl) (2-pyridyl)]amino}-3-methylazoline-2,5-dione] | 40 nM | 
21 | CCCOCCC1=C(C)C(=O)N(Nc2ccc(C(F)(F)F)c(Cl)n2)C1=O [Compound S04034, 1-{[6-chloro-5-(trifluoromethyl)(2-pyridyl)]amino}-3-methyl-4-(2-propoxyethyl)azoline-2,5-dione] | 40 nM | 
